Earlier results as cited in patent US8044020B2, “Pharmaceutical compositions and methods for insulin treatment” (CPEX Pharmaceuticals, Inc., priority 2003, dated 2011).

Settings: beagles; previously determined (Hseih, 1993)

SMILES: O=C1CCCCCCCCCCCCCCO1 [Cyclopentadecanolide]
- effect on migration of insulin through the nasal mucosa: facilitates the migration of insulin through the nasal mucosa
